Source: ChEMBL document CHEMBL1138947, “Potent inhibitors of the Qi site of the mitochondrial respiration complex III” (J Med Chem, 2006)
Active and inactive are the calls of the source. The rule behind the calls is not given here.

Tests used:
Parastagonospora nodorum [1] = assay: Inhibition of Septoria nodorum growth in wheat at 40 ppm; format: functional, organism-based
[2] = molecular target: T1, Mitochondrial complex II; succinate dehydrogenase (Septoria tritici, UniProt G4XX53+O42772); assay: Inhibition of Septoria nodorum succinate dehydrogenase and Qi site of mitochondrial respiratory chain complex 3 by FMET2-3 assay; format: protein-complex assay, Parastagonospora nodorum
T1 sequence (G4XX53 whole entry): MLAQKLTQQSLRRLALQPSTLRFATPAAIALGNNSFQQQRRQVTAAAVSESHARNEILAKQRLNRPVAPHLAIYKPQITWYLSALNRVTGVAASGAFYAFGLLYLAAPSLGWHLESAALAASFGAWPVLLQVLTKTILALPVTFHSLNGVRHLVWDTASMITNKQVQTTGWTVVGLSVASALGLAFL
T1 sequence (O42772 whole entry): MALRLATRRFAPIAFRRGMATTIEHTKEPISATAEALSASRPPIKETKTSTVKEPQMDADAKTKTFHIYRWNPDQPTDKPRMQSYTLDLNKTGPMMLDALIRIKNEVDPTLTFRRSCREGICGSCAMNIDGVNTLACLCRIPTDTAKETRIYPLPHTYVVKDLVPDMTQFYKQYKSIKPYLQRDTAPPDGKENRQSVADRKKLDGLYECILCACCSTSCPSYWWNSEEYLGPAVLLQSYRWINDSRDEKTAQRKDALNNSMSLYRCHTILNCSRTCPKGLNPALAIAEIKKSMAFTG

Parastagonospora nodorum [3] = assay: Inhibition of Septoria nodorum growth; format: functional

Row | Structure (SMILES) | Activity (Parastagonospora nodorum [1]) | IC50 [2] [µM] | GR50 (Parastagonospora nodorum [3]) [µM]
1 | O=C(Nc1ccc(Oc2ccc(C(F)(F)F)cc2)cc1)c1ccc2cn[nH]c2c1O | inactive | 0.026 | 0.343
2 | O=C(Nc1ccc(Oc2ccccc2)cc1)c1ccc2[nH]nnc2c1O | inactive |  | >30
3 | CCCCCC[C@H]1C(=O)O[C@H](C)[C@H](NC(=O)c2cccc(NC=O)c2O)C(=O)O[C@@H](C)[C@@H]1OC(=O)CC(C)C [ANTIMYCIN A] | inactive | 0.002 | 0.033
4 | O=C(Nc1ccc(Oc2ccccc2)cc1)c1ccc2c[nH]nc2c1O | inactive | 0.127 | 1.909
5 | O=C(Nc1ccc(Oc2ccc(C(F)(F)F)cc2)cc1)c1sc2c[nH]nc2c1O | inactive | 0.026 | 11.517
6 | O=C(Nc1ccc(Oc2ccc(C(F)(F)F)cc2)cc1)c1ccc2[nH]nnc2c1O | inactive | 0.005 | >30
7 | O=C(Nc1ccc(Oc2ccccc2)cc1)c1ccc2nn[nH]c2c1O |  | 0.032 | 
8 | O=C(Nc1ccc(Oc2ccccc2)cc1)c1ccc2[nH]cnc2c1O | inactive | > 30 | >30
